Laboratory results from US8822705B2, “Pharmaceutical composition for preventing and/or treating bone disease, functional food or health food and pharmaceutical preparation comprising thereof as active ingredient” (priority 2006, dated 2014).
“Also recorded” adds a separate entry of the source.

Key:
[1] = system: MC3T3-E1 cells; test: Calcification of calcium by osteoblast, Alizarin red S staining; type: cell-based, mouse
Method: (§1) MC3T3-E1 cells, pre-osteoblast cells, were suspended in α-MEM and plated in each well of the 96 well-microplate with 4×10^3 cells/well. Then, they were pre-incubated for 2 days at 37° C., 5% CO2 incubator. On day 3 from the beginning of the pre-incubation, culture medium in the wells were changed to α-MEM containing each concentration of test sample, 50 μg/mL of ascorbic acid and 10 mM β-glycerophosphoric acid, and then incubated for 7 to 21 days. In the incubation, the culture medium in the wells was exchanged in every 3 or 4 days.
Calcification of osteoblast cells were confirmed by Alizarin red S staining.
Effects of the above-mentioned four compounds and glycosides to the calcification of calcium by osteoblast were shown in FIG. 5.

[2] = system: MC3T3-E1 cells; test: Cytotoxicity by Cell Counting kit-8 or MTT (total cell numbers); type: cell-based, mouse; conditions: for cell number decreasing (cytotoxicity): by 30 μM
Method: After incubation of the same condition as described above, cytotoxicity was measured by using the Cell counting kit-8 or MTT according to the conventional method.
Cytotoxicity was measured by using Cell Counting kit-8 or MTT according to conventional method, after MC3T3-E1 was incubated in the same conditions as (2) described above.

[3] = system: MC3T3-E1 cells; test: Osteoblast differentiation, ALP activity in MC3T3-E1 cells; type: cell-based, mouse; conditions: incubated 7 to 21 days with test sample, absorbance at 405 nm, FIGS. 1A to 1D
Method: as §1
After the incubation period, the cells were fixed by using methanol. After drying the dish, activity of alkaline phosphatase (ALP), a marker enzyme of early stage osteoblast differentiation, was measured, and subjected to ALP staining.
In the measurement of ALP activity, a buffer containing 6.7 mM p-nitrophenylphosphate as a substrate, supplemented 2 mM magnesium chloride and 100 mM tris-HCl, pH 8.5. 100 μL of the buffer was plated in each well, incubated in 30 minutes at 37° C. Then, 100 μl of 0.1 N sodium hydroxide was added to the wells to terminate the reaction. After that, the absorbance at 405 nm was measured by using the plate reader and the absorbance value was used as ALP activity.
In ALP staining, the buffer containing 0.1 mg/ml naphtol AS-MX phosphate, 0.6 mg/ml fast blue BB salt, supplemented 2 mM magnesium chloride and 10 mM tris-HCl pH 8.5 was used. 50 μL of the buffer was added to each well of the 96 well-microplate and incubated for 30 minutes to 1 hour to stain.

[4] = system: excised first molar of C57BL/6 mice grafted under capsule of kidney; test: Graft culture of excised tooth with impregnated agarose beads under kidney capsule, alveolar bone formation; type: in vivo, mouse; conditions: three agarose beads impregnated in 100 μM acerogenin A embedded into dental pulp, 3 weeks graft culture, compared to D-PBS bead negative control; FIG. 4B
Method: Agarose beads impregnated in acerogenin A (hereinbelow, it is referred to as “acerogenin A-impregnated beads”) were prepared as follows. acerogenin A was diluted to 100 μM (at final concentration) by using D-PBS. Affi-Gel agarose beads were washed by using PBS. Washed agarose beads were placed in the 1.5 mL Eppendorf tube with flat bottom and 100 μL of the acerogenin A solution was added into it. Then, the tube was incubated at room temperature for 45 minutes to impregnated acerogenin A into the agarose beads. Acerogenin-impregnated agarose beads obtained were used for embedding under dental pulp in below.
Alternatively, as negative control, agarose beads similarly to prepare the acerogenin A-impregnated beads but impregnated in D-PBS without acerogenin A (hereinbelow, it is referred to as “D-PBS-impregnated beads”) were used.
Five days age of […] mice, where their dental roots-periodontal tissue was just before formed, were anesthetized and sacrificed by decapitation. After excised lower jaw of them, the first molars in the lower jaw were excised with dental follicles. For the test group, three acerogenin A-impregnated agarose beads were embedded into the dental pulp of the excised teeth, the first molar in the lower jaw. […]

SMILES	calcification activity level of calcium, rank order [1]	cell number decreasing (cytotoxicity) ([2]; FIGS. 2B and D)	cell numbers (cytotoxicity) ([2]; by 100 μM, FIGS. 2B and D)	ALP activity (early stage osteoblast differentiation) [3]	cell numbers (cytotoxicity) ([2]; FIGS. 2A and C)	cell numbers (cytotoxicity) at high concentration ([2]; FIGS. 2A and C)	alveolar bone formation of grafted tooth [4]
Oc1ccc2cc1Oc1ccc(cc1)CCCC[C@@H](O)CC2 [(R)-acerogenin B, 2-Oxatricyclo[13.2.2.13,7]eicosa-3,5,7(20),15,17,18-hexaene-4,10-diol, (10R)-(9CI)]	(R)-acerogenin B>aceroside I≅acerogenin A>aceroside B1	not observed	not affected	enhanced ALP activity			
Oc1ccc2cc1Oc1ccc(cc1)CC[C@H](O)CCCC2 [acerogenin A, 2-Oxatricyclo[13.2.2.13,7]eicosa-3,5,7 (20),15,17,18-hexaene-4,12-diol, (12R)-(9CI)]	(R)-acerogenin B>aceroside I≅acerogenin A>aceroside B1			enhanced ALP activity	not affected	slightly decreased	prominent extension of alveolar bone formation
OC[C@H]1O[C@@H](Oc2ccc3cc2Oc2ccc(cc2)CCCC[C@@H](O)CC3)[C@H](O)[C@@H](O)[C@@H]1O [aceroside B1, α-D-Glucopyranoside,(10R)-10-hydroxy-2-oxatricyclo[13.2.2.13,7]eicosa-3,5,7(20),15,17,18-hexaen-4-yl (9CI)]	(R)-acerogenin B>aceroside I≅acerogenin A>aceroside B1	not observed	not affected	enhanced ALP activity			
OC[C@H]1O[C@H](Oc2ccc3cc2Oc2ccc(cc2)CC[C@@H](O)CCCC3)[C@H](O)[C@@H](O)[C@@H]1O [aceroside I, α-D-Glucopyranoside, (12S)-12-hydroxy-2-oxatricyclo[13.2.2.13,7]eicosa-3,5,7(20),15,17,18-hexaen-4-yl (9CI)]	(R)-acerogenin B>aceroside I≅acerogenin A>aceroside B1			enhanced ALP activity; also recorded: dose-dependently enhanced	not affected	slightly decreased	
